One assay deals with CSF-1R kinase (Homo sapiens (Human), UniProt P07333). The assay is described as follows: CSF-1R kinase assay (AlphaScreen). The format is biochemical. To be noted: class symbol. How it is done: Inhibition of CSF-1R kinase activity by a test compound disclosed herein was estimated by AlphaScreen (PerkinElmer). […] Reactions were incubated at 30° C. for 45 min and stopped by adding 5 μL of 50 mM EDTA. Analysis of resulting product using an AlphaScreen kit, and counted with Enspire Alpha (PerkinElmer). […] The IC50 values of quinoxaline compounds of this invention against CSF-1R kinase were determined using the GraphPad Prism 5 software.
A general note: In Alpha technology, singlet oxygen from a donor bead excites a nearby acceptor bead.

The next assay concerns the target c-KIT kinase (Homo sapiens (Human), UniProt P10721). The assay is described as follows: c-KIT kinase assay (radiometric). The assay is classed as biochemical. In outline:
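Recombinant c-Kit (20 ng) with 2 μg Poly-(Glu4:Tyr1) in MOPS pH 7.0 buffer with MgCl2/MnCl2, 10 μM ATP plus [^33P]-ATP, 4% DMSO final, 60 min at 30° C. Stopped with phosphoric acid, filter-captured and scintillation counted; IC50 from curve fit.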

The target in another assay is FLT3 kinase (Homo sapiens (Human), UniProt P36888). Briefly: FLT3 kinase assay (radiometric). The assay is classed as biochemical. The method in brief:
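Recombinant FLT3 (5 ng) phosphorylating poly(Glu4:Tyr1) (2 μg) with 10 μM ATP plus [^33P]-ATP in MOPS pH 7.0 buffer, 4% DMSO final, 60 min at 30° C. Reaction stopped with phosphoric acid, filter-captured and scintillation-counted; IC50 derived from dose-response.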

The target of another assay is PDGFRβ kinase (Homo sapiens (Human), UniProt P09619). The assay is described as follows: PDGFRβ kinase assay (radiometric). To be noted: bound. The assay is classed as biochemical. The method in brief:
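Radiometric assay: recombinant PDGFRβ with poly(Glu4:Tyr1) in MOPS pH 7.0 buffer containing Mg2+/Mn2+, 10 μM ATP plus [33P]-ATP, and compound at 4% DMSO final. Incubated 60 min at 30° C, stopped with phosphoric acid, filter-captured and scintillation-counted. IC50 from curve fitting.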

The test system of assay [1] is CSF-1-dependent M-NFS-60 mouse myeloid leukemia cell. Briefly: M-NFS-60 cell proliferation assay (CellTiter-96). The format is cell-based. To be noted: Cytotoxicity, M-NFS-60 cells, 72 hours. The method in brief: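 Growth inhibition was measured as absorbance at 490 nm after 4 h with CellTiter 96 AQueous One reagent. Beforehand, M-NFS-60 cells (2000/well, CSF-1-dependent) were treated with a compound dilution series for 72 h following overnight plating at 37 °C, 5% CO2.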

Assay [2] has as its system MV4-11 human acute myeloid leukemia cell with FLT3-ITD mutation. The assay is described as follows: MV4-11 cell proliferation assay (CellTiter-96). The format is cell-based. As to conditions: Cytotoxicity, MV4-11 cells, 72 hours. In outline:
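Growth inhibition read as absorbance at 490 nm after 4 hours with CellTiter96 AQueous One reagent. Before that, FLT3-ITD-dependent MV4-11 cells (6500 cells/well, overnight at 37° C., 5% CO2) received a rising compound concentration series for 72 hours.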

For assay [3], the system named is Kasumi-1 human acute myeloid leukemia cell with c-KIT N822K activating mutation. The assay is described as follows: Kasumi-1 cell proliferation assay (CellTiter-96). As to conditions: Cytotoxicity, Kasumi-1 cells, 72 hours. The assay is classed as cell-based. In outline:
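After 72 h of treatment with a compound dilution series, growth of c-KIT N822K-driven Kasumi-1 cells (64000 per well, plated the day before) was read as 490 nm absorbance. This followed a 4 h incubation with CellTiter96 AQueous One reagent.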

The test system of assay [4] is THP-1 human acute monocytic leukemia cell harboring NRAS G12D mutation. The assay is described as follows: THP-1 cell proliferation assay (counter screen, CellTiter-96). The format is cell-based. As to conditions: Cytotoxicity, THP-1 cells (counter screen), 72 hours. The method in brief:
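Growth inhibition read as 490 nm absorbance after 4 h with CellTiter96 AQueous One reagent, following 72 h compound exposure at rising concentrations. THP-1 (NRAS G12D) cells plated at 5000 per well and left overnight at 37 °C, 5% CO2 before dosing.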

Assay [5] relates to osteoclast precursors (osteoclast differentiation). The assay is described as follows: Osteoclast tartrate-resistant acid phosphatase assay. The assay is classed as cell-based. To be noted: 168 h, at 1 μM treatment, 7 days, RANKL and M-CSF, read-out: inhibition activity against osteoclast differentiation. The method in brief: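 Differentiation inhibition was scored at 1 μM compound in duplicate, using supernatant TRAP activity read at 550 nm with an acid phosphatase kit.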

c-KIT kinase, sequence (P10721 26-976): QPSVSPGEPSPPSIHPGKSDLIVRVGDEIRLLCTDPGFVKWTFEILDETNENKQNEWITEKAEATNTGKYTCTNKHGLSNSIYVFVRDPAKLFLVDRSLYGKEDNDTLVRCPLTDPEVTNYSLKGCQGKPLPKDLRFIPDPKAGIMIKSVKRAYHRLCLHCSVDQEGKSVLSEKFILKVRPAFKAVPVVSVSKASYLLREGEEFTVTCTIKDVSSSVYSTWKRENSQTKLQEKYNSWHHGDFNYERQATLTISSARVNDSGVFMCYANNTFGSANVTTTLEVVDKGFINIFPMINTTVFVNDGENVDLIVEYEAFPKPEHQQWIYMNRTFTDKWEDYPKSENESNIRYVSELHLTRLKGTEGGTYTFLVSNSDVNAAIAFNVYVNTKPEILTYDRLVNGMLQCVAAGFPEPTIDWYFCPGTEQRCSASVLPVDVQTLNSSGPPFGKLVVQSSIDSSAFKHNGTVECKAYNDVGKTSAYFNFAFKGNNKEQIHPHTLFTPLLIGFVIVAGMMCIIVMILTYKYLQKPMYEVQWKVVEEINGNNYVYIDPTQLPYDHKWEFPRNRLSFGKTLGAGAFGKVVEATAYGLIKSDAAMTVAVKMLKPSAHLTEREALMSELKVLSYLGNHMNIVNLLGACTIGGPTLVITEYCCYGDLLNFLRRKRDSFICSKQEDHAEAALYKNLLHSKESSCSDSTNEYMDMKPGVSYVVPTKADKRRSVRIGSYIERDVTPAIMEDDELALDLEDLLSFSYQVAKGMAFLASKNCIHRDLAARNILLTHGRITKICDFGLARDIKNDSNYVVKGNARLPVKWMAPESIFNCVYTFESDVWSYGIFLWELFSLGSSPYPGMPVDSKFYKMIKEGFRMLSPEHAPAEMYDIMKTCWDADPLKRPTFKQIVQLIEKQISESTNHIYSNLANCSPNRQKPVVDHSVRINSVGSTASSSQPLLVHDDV
CSF-1R kinase, sequence (P07333 20-972): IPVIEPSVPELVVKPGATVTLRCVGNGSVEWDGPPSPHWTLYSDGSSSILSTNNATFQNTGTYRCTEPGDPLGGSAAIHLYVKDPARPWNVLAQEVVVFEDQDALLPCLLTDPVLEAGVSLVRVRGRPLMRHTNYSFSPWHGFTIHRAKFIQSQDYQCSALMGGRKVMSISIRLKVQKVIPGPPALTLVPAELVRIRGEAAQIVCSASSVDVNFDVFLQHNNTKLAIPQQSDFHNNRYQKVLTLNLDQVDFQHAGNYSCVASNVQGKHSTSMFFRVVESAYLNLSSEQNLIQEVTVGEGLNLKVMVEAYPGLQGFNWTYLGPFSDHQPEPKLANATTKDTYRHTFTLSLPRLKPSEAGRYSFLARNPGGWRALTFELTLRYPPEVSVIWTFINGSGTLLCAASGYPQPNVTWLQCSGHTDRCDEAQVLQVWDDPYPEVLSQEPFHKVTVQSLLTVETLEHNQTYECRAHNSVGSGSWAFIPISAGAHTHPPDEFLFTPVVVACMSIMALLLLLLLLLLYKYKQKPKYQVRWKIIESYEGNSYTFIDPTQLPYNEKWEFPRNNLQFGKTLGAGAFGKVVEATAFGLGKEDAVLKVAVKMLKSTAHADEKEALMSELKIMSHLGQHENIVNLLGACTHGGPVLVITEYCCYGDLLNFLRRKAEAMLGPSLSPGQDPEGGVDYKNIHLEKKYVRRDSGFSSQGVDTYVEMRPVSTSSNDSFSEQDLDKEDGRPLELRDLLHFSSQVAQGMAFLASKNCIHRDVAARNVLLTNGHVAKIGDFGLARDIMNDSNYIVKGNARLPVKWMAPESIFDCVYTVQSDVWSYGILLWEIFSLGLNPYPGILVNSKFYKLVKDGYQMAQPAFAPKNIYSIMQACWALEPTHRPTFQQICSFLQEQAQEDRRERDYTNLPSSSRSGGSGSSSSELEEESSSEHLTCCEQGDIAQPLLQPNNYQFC
PDGFRβ kinase, sequence (P09619 33-1106): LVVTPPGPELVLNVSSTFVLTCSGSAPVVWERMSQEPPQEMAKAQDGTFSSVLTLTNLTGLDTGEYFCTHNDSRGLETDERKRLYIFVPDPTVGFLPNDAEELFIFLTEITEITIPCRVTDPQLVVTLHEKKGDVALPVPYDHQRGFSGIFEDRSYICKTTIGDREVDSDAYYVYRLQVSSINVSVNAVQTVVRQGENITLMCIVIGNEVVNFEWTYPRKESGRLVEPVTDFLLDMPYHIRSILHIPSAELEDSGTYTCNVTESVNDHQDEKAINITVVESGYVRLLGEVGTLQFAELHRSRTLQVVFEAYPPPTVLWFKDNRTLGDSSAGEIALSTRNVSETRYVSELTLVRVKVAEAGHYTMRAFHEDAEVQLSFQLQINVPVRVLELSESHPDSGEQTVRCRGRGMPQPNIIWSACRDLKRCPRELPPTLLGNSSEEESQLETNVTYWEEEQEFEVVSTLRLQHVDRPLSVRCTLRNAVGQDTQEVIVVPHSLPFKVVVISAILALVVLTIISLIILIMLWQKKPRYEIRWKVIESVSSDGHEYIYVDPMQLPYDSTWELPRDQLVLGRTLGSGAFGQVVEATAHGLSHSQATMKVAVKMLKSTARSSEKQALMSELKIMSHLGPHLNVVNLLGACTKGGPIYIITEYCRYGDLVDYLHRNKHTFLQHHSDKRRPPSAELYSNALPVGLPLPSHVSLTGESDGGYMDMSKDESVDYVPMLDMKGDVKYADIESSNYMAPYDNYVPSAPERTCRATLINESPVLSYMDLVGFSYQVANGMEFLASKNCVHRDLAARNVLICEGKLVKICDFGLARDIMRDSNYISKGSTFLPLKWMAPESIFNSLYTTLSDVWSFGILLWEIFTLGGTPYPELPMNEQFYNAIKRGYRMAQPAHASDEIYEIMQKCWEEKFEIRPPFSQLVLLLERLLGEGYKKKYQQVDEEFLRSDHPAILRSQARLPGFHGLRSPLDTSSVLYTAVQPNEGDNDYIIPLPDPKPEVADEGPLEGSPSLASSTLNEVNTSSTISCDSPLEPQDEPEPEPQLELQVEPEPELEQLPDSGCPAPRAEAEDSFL
FLT3 kinase, sequence (P36888 27-993): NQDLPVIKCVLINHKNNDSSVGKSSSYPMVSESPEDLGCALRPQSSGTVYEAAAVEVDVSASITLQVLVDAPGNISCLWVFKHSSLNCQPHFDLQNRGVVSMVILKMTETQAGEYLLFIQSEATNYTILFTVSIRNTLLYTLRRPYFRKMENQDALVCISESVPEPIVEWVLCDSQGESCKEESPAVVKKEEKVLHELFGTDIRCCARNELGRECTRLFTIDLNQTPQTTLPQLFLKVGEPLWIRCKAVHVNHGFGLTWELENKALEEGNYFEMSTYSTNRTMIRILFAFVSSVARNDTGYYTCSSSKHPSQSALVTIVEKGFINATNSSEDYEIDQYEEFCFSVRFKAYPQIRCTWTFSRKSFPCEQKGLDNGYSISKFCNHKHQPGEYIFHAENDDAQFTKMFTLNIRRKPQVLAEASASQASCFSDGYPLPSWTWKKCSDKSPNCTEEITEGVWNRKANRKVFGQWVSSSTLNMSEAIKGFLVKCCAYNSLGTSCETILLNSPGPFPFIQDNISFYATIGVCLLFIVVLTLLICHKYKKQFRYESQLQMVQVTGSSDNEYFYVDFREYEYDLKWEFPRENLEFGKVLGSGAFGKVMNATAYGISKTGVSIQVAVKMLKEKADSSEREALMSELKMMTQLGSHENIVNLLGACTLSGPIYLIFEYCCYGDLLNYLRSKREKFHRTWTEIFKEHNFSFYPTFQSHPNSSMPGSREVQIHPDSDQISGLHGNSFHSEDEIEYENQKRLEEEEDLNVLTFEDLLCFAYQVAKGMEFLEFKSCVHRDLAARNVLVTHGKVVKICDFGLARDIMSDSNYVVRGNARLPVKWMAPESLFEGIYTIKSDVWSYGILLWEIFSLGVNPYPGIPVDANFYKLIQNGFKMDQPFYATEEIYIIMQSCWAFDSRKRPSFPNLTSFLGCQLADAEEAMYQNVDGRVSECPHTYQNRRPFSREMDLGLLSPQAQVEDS

By IC50 is commonly meant the point on the concentration scale where inhibition reaches its midpoint. A high value points to weaker potency. What is called inhibition is how much of the control response was suppressed. Consider `CCOc1ccc(COc2ccc(Nc3ccc4ncc(N5CCOCC5)nc4c3C#N)cc2OC)cn1` [Example 112, 6-((4-((6-ethoxypyridin-3-yl)methoxy)-3-methoxyphenyl)amino)-3-morpholinoquinoxaline-5-carbonitrile], for which the 50% inhibitory concentration (IC50) against CSF-1R kinase is under 100 nM; at c-KIT kinase (class symbol) it was under 100 nM; at FLT3 kinase (bound), over 1000 nM; on PDGFRβ kinase, over 1000 nM; in assay [1] it was under 300 nM; in [2], 1000 to 10000 nM. Also, the IC50 in assay [3] is under 300 nM; in [4], over 10000 nM. Moreover, in assay [5], the inhibition at 1 µM was over 50%.

Consider `COc1ccc(COc2ccc(Nc3ccc4ncc(NC5CCN(Cc6ccccc6)CC5)nc4c3C#N)cc2OC)cc1` [Example 77, 3-((1-benzylpiperidin-4-yl)amino)-6-((3-methoxy-4-((4-methoxybenzyl)oxy)phenyl)amino)quinoxaline-5-carbonitrile], for which the 50% inhibitory concentration (IC50) at CSF-1R kinase was under 100 nM; on c-KIT kinase (class symbol), 300 to 1000 nM; on FLT3 kinase (bound) it was over 1000 nM; against PDGFRβ kinase, over 1000 nM; in assay [1], 300 to 1000 nM; in assay [2], 1000 to 10000 nM. In addition, the half-inhibitory concentration (IC50) in assay [3] and in [4] was 1000 to 10000 nM throughout. Besides, the inhibition at 1 µM in assay [5] is over 50%.

Regarding `COc1cc(Nc2ccc3ncc(N4CCOCC4)nc3c2C#N)ccc1OCc1cnn(C)c1` [Example 105, 6-((3-methoxy-4-((1-methyl-1H-pyrazol-4-yl)methoxy)phenyl)amino)-3-morpholinoquinoxaline-5-carbonitrile], the 50% inhibitory concentration (IC50) at CSF-1R kinase is under 100 nM; on c-KIT kinase (class symbol) it was under 100 nM; on FLT3 kinase (bound), over 1000 nM; against PDGFRβ kinase, over 1000 nM; in assay [1] it was under 300 nM; in assay [2] it was 1000 to 10000 nM. Further, the half-maximal inhibitory concentration (IC50) in assay [3] is 300 to 1000 nM; in assay [4], over 10000 nM. Moreover, the inhibition at 1 µM in assay [5] was over 50%.

Turning to `COc1ccc(COc2ccc(Nc3ccc4ncc(NCCN5CCOCC5)nc4c3C#N)cc2OC)cc1` [Example 76, 6-((3-methoxy-4-((4-methoxybenzyl)oxy)phenyl)amino)-3-((2-morpholinoethyl)amino)quinoxaline-5-carbonitrile], the IC50 against CSF-1R kinase was under 100 nM; at c-KIT kinase (class symbol) it was 300 to 1000 nM; on FLT3 kinase (bound) it was over 1000 nM; against PDGFRβ kinase, over 1000 nM; in assay [1], under 300 nM; in assay [2] it was 1000 to 10000 nM. Further, the IC50 is 1000 to 10000 nM in [3] and over 10000 nM in assay [4]. Further, the inhibition at 1 µM in assay [5] was over 50%.

For `COc1cc(Nc2ccc3ncc(N4CCOCC4)nc3c2C#N)ccc1OCc1ccc2c(c1)OCO2` [Example 81, 6-((4-(benzo[d][1,3]dioxol-5-ylmethoxy)-3-methoxyphenyl)amino)-3-morpholinoquinoxaline-5-carbonitrile], the half-inhibitory concentration (IC50) at CSF-1R kinase is under 100 nM; against c-KIT kinase (class symbol), 300 to 1000 nM; against FLT3 kinase (bound) it was over 1000 nM; at PDGFRβ kinase it was over 1000 nM; in assay [1], under 300 nM; in assay [2] it was over 10000 nM. For the same molecule, the half-maximal inhibitory concentration (IC50) in assay [3] and in [4] was over 10000 nM throughout. Also, the inhibition at 1 µM in [5] is over 50%.

Regarding `COc1ccc(COc2ccc(Nc3ccc4ncc(N5CCC(C)CC5)nc4c3C#N)cc2OC)cn1` [Example 69, 6-((3-methoxy-4-((6-methoxypyridin-3-yl)methoxy)phenyl)amino)-3-(4-methylpiperidin-1-yl)quinoxaline-5-carbonitrile], the IC50 on CSF-1R kinase was under 100 nM; against c-KIT kinase (bound), over 1000 nM; against FLT3 kinase (bound), over 1000 nM; at PDGFRβ kinase it was over 1000 nM; in [1], 300 to 1000 nM; in assay [2], over 10000 nM. Further, the half-inhibitory concentration (IC50) in assay [3] and in assay [4] was over 10000 nM throughout. In addition, the inhibition at 1 µM in assay [5] was over 50%.

In the case of `COc1ccc(COc2ccc(Nc3ccc4ncc(N5CCOCC5)nc4c3C#N)cn2)cc1` [Example 52, 6-((6-((4-methoxybenzyl)oxy)pyridin-3-yl)amino)-3-morpholinoquinoxaline-5-carbonitrile], the IC50 is under 100 nM at CSF-1R kinase; 100 to 300 nM against c-KIT kinase (class symbol); 300 to 1000 nM at FLT3 kinase (class symbol); over 1000 nM at PDGFRβ kinase; 300 to 1000 nM in [1]; under 300 nM in assay [2]. The concentration for half-maximal inhibition (IC50) in assay [3] is 300 to 1000 nM; in assay [4] it was over 10000 nM. Also, in [5], the inhibition at 1 µM is over 50%.

Turning to `COc1ccc(COc2ccc(Nc3ccc4ncc(N5CCC(N6CCOCC6)CC5)nc4c3C#N)cc2OC)cn1` [Example 102, 6-((3-methoxy-4-((6-methoxypyridin-3-yl)methoxy)phenyl)amino)-3-(4-morpholinopiperidin-1-yl)quinoxaline-5-carbonitrile], the IC50 is under 100 nM against CSF-1R kinase; 100 to 300 nM at c-KIT kinase (class symbol); over 1000 nM against FLT3 kinase (bound); over 1000 nM against PDGFRβ kinase; under 300 nM in assay [1]; over 10000 nM in assay [2]. Besides, the 50% inhibitory concentration (IC50) in assay [3] was under 300 nM; in assay [4] it was over 10000 nM. For the same molecule, the inhibition at 1 µM in assay [5] is over 50%.

Consider `COc1ccc(COc2ccc(Nc3ccc4ncc(N5CCC(COC(C)=O)CC5)nc4c3C#N)cc2OC)cc1` [Example 71, (1-(8-cyano-7-((3-methoxy-4-((4-methoxybenzyl)oxy)phenyl)amino)quinoxalin-2-yl)piperidin-4-yl)methyl acetate], for which the concentration for half-maximal inhibition (IC50) against CSF-1R kinase is under 100 nM; on c-KIT kinase (class symbol) it was under 100 nM; at FLT3 kinase (bound), over 1000 nM; on PDGFRβ kinase, over 1000 nM; in [1] it was under 300 nM; in assay [2] it was over 10000 nM. For the same molecule, the concentration for half-maximal inhibition (IC50) in assay [3] is under 300 nM; in [4], over 10000 nM. In addition, the inhibition at 1 µM in [5] was over 50%.

As for `COc1ccc(COc2ccc(Nc3ccc4ncc(N5CCN(C(C)C)CC5)nc4c3C#N)cc2OC)cc1` [Example 80, 3-(4-isopropylpiperazin-1-yl)-6-((3-methoxy-4-((4-methoxybenzyl)oxy)phenyl)amino)quinoxaline-5-carbonitrile], the IC50 against CSF-1R kinase was under 100 nM; against c-KIT kinase (class symbol), under 100 nM; against FLT3 kinase (bound), over 1000 nM; against PDGFRβ kinase it was over 1000 nM; in assay [1], under 300 nM; in assay [2], 1000 to 10000 nM. Further, the IC50 was under 300 nM in assay [3] and 1000 to 10000 nM in assay [4]. Besides, the inhibition at 1 µM in assay [5] is over 50%.

For the molecule `COc1cc(Nc2ccc3ncc(N4CCOCC4)nc3c2C#N)ccc1OCc1cccc(F)c1` [Example 91, 6-((4-((3-fluorobenzyl)oxy)-3-methoxyphenyl)amino)-3-morpholinoquinoxaline-5-carbonitrile], the IC50 at CSF-1R kinase is under 100 nM; against c-KIT kinase (class symbol), 100 to 300 nM; against FLT3 kinase (bound) it was over 1000 nM; against PDGFRβ kinase, over 1000 nM; in assay [1] it was 300 to 1000 nM; in assay [2], 1000 to 10000 nM. In addition, the results for the IC50 in assay [3] and in assay [4] were 1000 to 10000 nM and over 10000 nM, respectively. Moreover, in assay [5], the inhibition at 1 µM was over 50%.

Consider `COc1cc(Nc2ccc3ncc(N4CCC(N(C)C)CC4)nc3c2C#N)ccc1OCc1cccc(C#N)c1` [Example 84, 6-((4-((3-cyanobenzyl)oxy)-3-methoxyphenyl)amino)-3-(4-(dimethylamino)piperidin-1-yl)quinoxaline-5-carbonitrile], for which the half-maximal inhibitory concentration (IC50) at CSF-1R kinase was under 100 nM; against c-KIT kinase (class symbol), under 100 nM; on FLT3 kinase (bound), over 1000 nM; on PDGFRβ kinase, over 1000 nM; in assay [1] it was under 300 nM; in assay [2], 1000 to 10000 nM. The figures for the 50% inhibitory concentration (IC50) in assay [3] and in [4] were 300 to 1000 nM and 1000 to 10000 nM, respectively. The inhibition at 1 µM in assay [5] was over 50%.
